According to patent publication US10344019B2 (priority 2010, dated 2019):
Read-outs that look alike come from different tables or passages of the source.

Columns and labels:
Assay in all cases: microbe, parasite or virus in culture
Type in all cases: cell-based
[1] = tested on: HCV 3a RLuc cells (NS5A chimeric genotype 1b Con1 replicon with consensus genotype 3a NS5A gene)
Description: (§1) Evaluation of cell-based anti-HCV activity: Antiviral potency (EC50) was determined using a Renilla luciferase (RLuc)-based HCV replicon reporter assay. To perform the assay for genotype 1 and 2a JFH-1, HCV 1b RLuc cells (harboring a dicistronic genotype 1b Con1 replicon that encodes a RLuc reporter), or HCV 1a RLuc cells (harboring a dicistronic genotype 1a H77 replicon that encodes a RLuc reporter), or HCV 2a JFH-1 Rluc cells (harboring a dicistronic genotype 2a JFH-1 replicon that encodes a RLuc reporter) were dispensed into 384-well plates. To perform the assay for genotype 2a (with M31 present) or 2b, HCV 2a Rluc or 2b Rluc cells (both with M31 present) harboring a dicistronic NS5A chimeric genotype 2a JFH-1 replicon that encodes a RLuc reporter and either genotype 2a J6 strain NS5A gene or genotype 2b MD2b-1 NS5A gene (based on Los Alamos HCV database isolates, both with M31 present) respectively, were dispensed into 384-well plates. To perform the assay for genotype 3 and 4, HCV 3a RLuc or 4a Rluc cells harboring a dicistronic NS5A chimeric genotype 1b Con1 replicon that encodes a RLuc reporter and either a consensus genotype 3a NS5A gene or genotype 4a NS5A gene (based on Los Alamos HCV database isolates) respectively, were dispensed into 384-well plates. Compounds were re-suspended in DMSO at a concentration of 10 mM and serially diluted in DMSO either manually or using an automated pipeting instrument. Serially diluted compounds were mixed with cell culture media and added to the seeded cells. […] 72 hours later, cells were lysed and Renilla luciferase activity quantified as recommended by the manufacturer (Promega-Madison, Wis.). Non-linear regression was performed to calculate EC50 values.

[2] = tested on: HCV 1b RLuc cells (dicistronic genotype 1b Con1 replicon, RLuc reporter)
Description: as §1

[3] = tested on: HCV 2a JFH-1 Rluc cells (dicistronic genotype 2a JFH-1 replicon, RLuc reporter); conditions: genotype 2a JFH-1 replicon, read-out: 2a JFH
Description: as §1

[4] = tested on: HCV 1a RLuc cells (dicistronic genotype 1a H77 replicon, RLuc reporter); conditions: genotype 1a H77 replicon, read-out: 1a
Description: as §1

[5] = Hepatitis C virus, read-out: 3a, genotype 3a NS5A chimeric 1b Con1 replicon
[6] = Hepatitis C virus, read-out: 1b (nM)
[7] = Hepatitis C virus, RLuc reporter
[8] = Hepatitis C virus, read-out: 3a, Table 2, genotype 3a NS5A chimeric replicon
[9] = Hepatitis C virus, 72 h, read-out: 1b (nM)
[10] = Hepatitis C virus, 72 h, Table 2, 72 hours
[11] = read-out: 3a, genotype 3a NS5A chimeric 1b Con1 replicon
[12] = Hepatitis C virus, 72 h, Table 1, 72 hours

Row | SMILES | EC50 [1, 5] [pM] | EC50 [2, 6] [nM] | EC50 [3, 7] [pM] | EC50 [4, 7] [pM] | further results
1 | COC(=O)N[C@H](C(=O)N1CCC[C@H]1c1ncc(-c2ccc3cc(-c4ccc(-c5cnc([C@@H]6CCCN6C(=O)[C@H](NC(=O)OC)c6cccnc6)[nH]5)cc4)ccc3c2)[nH]1)C(C)C [Example 161] | 1 to 990 | 0.019 | 1 to 999 | 1 to 999 | –
2 | COC(=O)N[C@H](C(=O)N1CCC[C@H]1c1nc2c([nH]1)-c1ccc(-c3ccc4cc(-c5cnc([C@@H]6COCCN6C(=O)[C@H](NC(=O)OC)c6ccccc6)[nH]5)ccc4c3)cc1CC2)C(C)C [Example 211] | 1000 to 4990 | 0.009 | 1000 to 44000 | 1 to 999 | –
3 | COC(=O)N[C@H](C(=O)N1CCC[C@H]1c1ncc(-c2ccc3cc(-c4ccc5c(ccc6nc([C@@H]7CCCN7C(=O)[C@H](NC(=O)OC)c7ccccc7)[nH]c65)c4)ccc3c2)[nH]1)C1CCOCC1 [Example 173] | 1 to 990 | 0.024 | 1 to 999 | 1 to 999 | –
4 | COC(=O)N[C@H](C(=O)N1CCC[C@H]1c1ncc(-c2ccc3cc(-c4ccc(-c5cnc([C@@H]6CCCN6C(=O)[C@H](NC(=O)OC)c6ccccc6)[nH]5)cc4)ccc3c2)[nH]1)C(C)C [Example 29] | – | – | – | – | EC50 [1, 8]: 1 to 990 pM; EC50 [2, 9]: 0.014 nM; EC50 [3, 10]: 1 to 999 pM; EC50 [4, 10]: 1 to 999 pM
5 | CCN(CC)C(C(=O)N1CCC[C@H]1c1ncc(-c2ccc(-c3ccc4cc(-c5cnc([C@@H]6CCCN6C(=O)[C@@H](NC(=O)OC)C(C)C)[nH]5)ccc4c3)cc2)[nH]1)c1ccccc1 (some centres unmarked) [Example 138] | 1 to 990 | 0.006 | 1 to 999 | 1 to 999 | –
6 | COC(=O)N[C@H](C(=O)N1[C@@H]2CC[C@@H](C2)[C@H]1c1ncc(-c2ccc(-c3ccc4c(ccc5nc([C@@H]6CCCN6C(=O)[C@@H](NC(=O)OC)C6CCOCC6)[nH]c54)c3)cc2)[nH]1)C(C)C [Example 82] | – | – | – | – | EC50 [1, 8]: 1 to 990 pM; EC50 [2, 9]: 0.042 nM; EC50 [3, 10]: 1 to 999 pM; EC50 [4, 10]: 1 to 999 pM
7 | CCC(=O)N[C@@H](C(=O)N1CCC[C@H]1c1ncc(-c2ccc(-c3ccc4cc(-c5cnc([C@@H]6CCCN6C(=O)[C@@H](NC(=O)OC)C(C)C)[nH]5)ccc4c3)cc2)[nH]1)c1ccccc1 [Example 187] | 1 to 990 | 0.007 | 1 to 999 | 1 to 999 | –
8 | COC(=O)N[C@H](C(=O)N1C[C@H](C#N)C[C@H]1c1ncc(-c2ccc3cc(-c4ccc(-c5cnc([C@@H]6CCCN6C(=O)[C@H](NC(=O)OC)c6ccccc6)[nH]5)cc4)ccc3c2)[nH]1)C(C)C [Example 135] | > 5000 | 0.006 | 1 to 999 | 1 to 999 | –
9 | COC(=O)N[C@H](C(=O)N1CCC[C@H]1c1ncc(-c2ccc(-c3ccc4cc(-c5cnc([C@@H]6CCCN6C(=O)[C@H](NC(=O)OC)c6ccccc6)[nH]5)ccc4c3)cc2)[nH]1)C(C)C [Example 30] | – | – | – | – | EC50 [1, 8]: 1 to 990 pM; EC50 [2, 9]: 0.008 nM; EC50 [3, 10]: 1 to 999 pM; EC50 [4, 10]: 1 to 999 pM
10 | COC(=O)N[C@H](C(=O)N1CCC[C@H]1c1ncc(-c2ccc3cc(-c4ccc(-c5cnc([C@@H]6CCCN6C(=O)[C@H](NC(=O)OC)c6ccc(OC)cc6)[nH]5)cc4)ccc3c2)[nH]1)C(C)C [Example 109] | > 5000 | 1.6 | > 44000 | 1000 to 44000 | –
11 | COC(=O)N[C@H](C(=O)N1CCC[C@H]1c1ncc(-c2nc3cc4sc(-c5cnc([C@@H]6CCCN6C(=O)[C@@H](NC(=O)OC)C(C)C)[nH]5)nc4cc3s2)[nH]1)C(C)C [Example 141] | > 5000 | 0.181 | 1000 to 44000 | 1000 to 44000 | –
12 | COC(=O)N[C@H](C(=O)N1CCC[C@H]1c1ncc(-c2ccc3cc(-c4ccc(-c5cnc([C@@H]6C[C@@H](C#N)CN6C(=O)[C@H](NC(=O)OC)c6ccccc6)[nH]5)cc4)ccc3c2)[nH]1)C(C)C [Example 145] | 1000 to 4990 | 0.01 | 1 to 999 | 1 to 999 | –
13 | COC(=O)NC(C(=O)N1CCC[C@H]1c1ncc(-c2ccc(-c3ccc4cc(-c5cnc([C@@H]6CCCN6C(=O)[C@@H](NC(=O)OC)C(C)C)[nH]5)ccc4c3)cc2)[nH]1)c1ccccc1Cl (some centres unmarked) [Example 104] | 1 to 990 | 0.007 | 1 to 999 | 1 to 999 | –
14 | CCN(CC)[C@@H](C(=O)N1CCC[C@H]1c1ncc(-c2ccc3cc(-c4ccc(-c5cnc([C@@H]6CC7(COCO7)CN6C(=O)[C@@H](NC(=O)OC)C(C)C)[nH]5)cc4)ccc3c2)[nH]1)c1ccccc1 (some centres unmarked) [Example 36] | – | – | – | – | EC50 [1, 8]: 1 to 990 pM; EC50 [2, 9]: 0.01 nM; EC50 [3, 10]: 1 to 999 pM; EC50 [4, 10]: 1 to 999 pM
15 | COC(=O)N[C@H](C(=O)N1CCC[C@H]1c1ncc(-c2ccc3cc(-c4ccc(-c5cnc([C@@H]6CCCN6C(=O)[C@H](NC(=O)OC)c6ccccc6F)[nH]5)cc4)ccc3c2)[nH]1)C(C)C [Example 149] | – | – | – | – | EC50 [1, 11]: 1 to 990 pM; EC50 ([2]; read-out: 1b): 0.005 nM; EC50 ([3]; RLuc reporter): 1 to 999 pM; EC50 ([4]; RLuc reporter): 1 to 999 pM
16 | COC(=O)N[C@H](C(=O)N1C[C@H](C)C[C@H]1c1ncc(-c2ccc3cc(-c4ccc(-c5cnc([C@@H]6CCCN6C(=O)[C@H](NC(=O)OC)c6cccc(C)c6)[nH]5)cc4)ccc3c2)[nH]1)C(C)C [Example 184] | 1 to 990 | 0.009 | 1 to 999 | 1 to 999 | –
17 | COC(=O)N[C@H](C(=O)N1CCC[C@H]1c1ncc(-c2ccc(-c3ccc4cc(-c5cnc([C@@H]6CCCN6C(=O)C(c6ccccc6)N6CCOCC6)[nH]5)ccc4c3)cc2)[nH]1)C(C)C (some centres unmarked) [Example 120] | 1 to 990 | 0.014 | 1 to 999 | 1 to 999 | –
18 | COC(=O)N[C@H](C(=O)N1CCC[C@H]1c1ncc(-c2ccc(-c3ccc4cc(-c5cnc(C6CCCN6C(=O)[C@H](NC(=O)OC)c6ccccc6)[nH]5)ccc4c3)cc2)[nH]1)C1CCOCC1 (some centres unmarked) [Example 154] | 1 to 990 | 0.014 | 1 to 999 | 1 to 999 | –
19 | COC(=O)NC(C(=O)N1C[C@H](C)C[C@H]1c1ncc(-c2ccc(-c3ccc4cc(-c5cnc([C@@H]6CCCN6C(=O)[C@@H](NC(=O)OC)C6CCOCC6)[nH]5)ccc4c3)cc2)[nH]1)c1cnccn1 (some centres unmarked) [Example 254] | – | 0.077 | 1 to 999 | 1 to 999 | –
20 | COC(=O)NC(C(=O)N1CCC[C@@H]1c1ncc(-c2cc3c4c(c2)OCc2cc(-c5cnc([C@H]6CCCN6C(=O)[C@@H](NC(=O)OC)C(C)C)[nH]5)cc(c2-4)OC3)[nH]1)C(C)C (some centres unmarked) [Example 11] | – | – | – | – | EC50 [2, 9]: 0.258 nM; EC50 [3, 12]: 1 to 999 pM; EC50 [4, 12]: 1000 to 44000 pM
21 | COC(=O)NC(C(=O)N1C[C@H](C)C[C@H]1c1ncc(-c2ccc(-c3ccc4cc(-c5cnc([C@@H]6CCCN6C(=O)[C@@H](NC(=O)OC)C(C)C)[nH]5)ccc4c3)cc2)[nH]1)c1cnccn1 (some centres unmarked) [Example 255] | – | 0.015 | 1000 to 44000 | 1 to 999 | –
22 | COC(=O)N[C@H](C(=O)N1CCC[C@H]1c1ncc(-c2ccc3cc(-c4ccc(-c5cnc([C@@H]6C[C@@H](F)CN6C(=O)[C@H](NC(=O)OC)c6ccccc6)[nH]5)cc4)ccc3c2)[nH]1)C(C)C [Example 140] | – | – | – | – | EC50 [1, 11]: 1 to 990 pM; EC50 ([4]; RLuc reporter): 1 to 999 pM
23 | COC(=O)N[C@H](C(=O)N1CCC[C@H]1c1ncc(-c2ccc3c(c2)CCc2cc(-c4cnc([C@@H]5CCCN5C(=O)C(c5ccccc5)N(C)C)[nH]4)ccc2-3)[nH]1)C(C)C (some centres unmarked) [Example 190] | 1 to 990 | – | – | – | –
24 | COC(=O)N[C@H](C(=O)N1CCC[C@H]1c1ncc(-c2ccc3cc(-c4ccc(-c5cnc([C@@H]6CCCN6C(=O)[C@@H](NC(=O)OCc6ccccc6)C6CCSCC6)[nH]5)cc4)ccc3c2)[nH]1)C(C)C [Example 276] | – | – | – | – | EC50 ([3]; RLuc reporter): > 44000 pM; EC50 ([4]; RLuc reporter): > 44000 pM
25 | COC(=O)N[C@H](C(=O)N1CCC[C@H]1c1ncc(-c2ccc3cc(-c4ccc(-c5cnc([C@@H]6CCCN6C(=O)[C@H](NC(=O)OC(C)(C)C)c6ccccc6)[nH]5)cc4)ccc3c2)[nH]1)C(C)C [Example 186] | – | 0.004 | 1 to 999 | 1 to 999 | –
